From patent US8697840B2, “Peptide inhibition of lung epithelial apoptosis and pulmonary fibrosis” (Board of Regents, The University of Texas System, priority 2008, dated 2014)

How the values were obtained:
[1] = system: bleo-induced lung injury in the mouse; test: Lung hydroxyproline (collagen deposition) after bleo-induced lung injury; format: in vivo; conditions: for bleomycin-induced collagen deposition (hPro content, % of control): 10 mM peptide i.p. osmotic pump 7 days after bleo
Description: (§1) FIGS. 10A and 10B are graphs showing the effect of PP-1 on fibrosis following bleo-induced lung injury in the mouse. […] 24 h after bleo, 0.1 ml osmotic pump filled with 10 mM PP-1 (designated “Bleo+PP” in Figures) or CP1 control scrambled peptide (“Bleo+CP1”) were implanted intraperitoneally. Lungs were harvested after 21 days, homogenized and the homogenates were subjected to the analysis of hydroxyproline or desmosine levels.
Anesthetized mice received intranasal bleomycin HCl solution containing 40 μg/50μl in sterile saline solution. After 24 h, 7 days or 14 days 10 mM PP-1 (“Bleo+PP-1”) or control peptide (Bleo+CP-1) were given ip using a 0.1 ml osmotic pump. Mice were sacrificed and lungs excised 21 days later. Lung homogenates were analyzed for hydroxyproline. Results are expressed a % of control hydroxyproline concentration.
Anesthetized mice received intranasal bleomycin HCl solution containing 40 μg/50 μl in sterile saline solution. After day 7, 10 mM peptide PP-2 (“Bleo+PP-2”) or control peptide (“Bleo+CP-2) were given intraperitoneally using a 0.1 ml osmotic pump. Lungs were excised after 21 days, lungs were homogenized and the homogenates were analyzed for hydroxyproline. Results are expressed a % of control hydroxyproline concentration.
The hPro content of the whole mouse lungs tissues were measured using the technique of Woessner J F, 1961, Arch. Biochem. Biophys. 93:440-7). Lung tissue from each animal was homogenized in 1.0 ml of extraction buffer. One ml 12N HCl was added, and the samples were hydrolyzed at 110° C. for 24 h. After cooling, 5 μl of the samples were mixed with 5 μl of citrate-acetate buffer (5% citric acid, 1.2% glacial acetic acid, 7.25% sodium acetate and 3.4% sodium hydroxide) and 100 μl of chloramine-T solution (1.4% chloramine-T, 10% N-propanol, and 80% citrate acetate buffer) in 96 well plates. The mixture was incubated for 20 min at room temperature. A total of 100 μl of Ehrlich's solution (2.5 g p-dimethylaminobenzaldehyde added to 9.3 ml of n-propanol and 3.9 ml of 70% perchloric acid) was added to each well and the plates incubated at 65° C. for 18 min. The absorbance of each sample was measured at 550 nm. Standard curves were generated for each experiment using a known concentration of reagent hPro. Results were expressed as % changes in hPro content (with total hPro content of saline-treated control mouse lungs considered 100%).
(§2) Lungs were harvested after 21 days, homogenized and the homogenates were subjected to the analysis of hydroxyproline as above (FIG. 10A) or desmosine (FIG. 10B). The effect of PP-1 on fibrosis in bleo-induced mouse lung injury was evaluated. Mice were treated with saline or 50 μg Bleo intranasally were implanted one day later with, 0.1 ml osmotic pumps i.p. The pumps were filled with either 10 mM (2.92 mg/100 μl) PP-1 (“Bleo+PP-1”) or control scrambled peptide CP-1 (“Bleo+CP-1”).

[2] = system: bleomycin-induced lung epithelial cell (LEC) apoptosis; test: TUNEL staining for apoptosis of lung sections of bleo-treated mice; format: in vivo, mouse; conditions: for Lung epithelial cell apoptosis: appearance of cells / Lung epithelial cell apoptosis: cell death: bleo-treated animals, peptide one day after bleo; for Lung epithelial cell apoptosis: appearance of cells: lung tissue day 21; for Lung epithelial cell apoptosis: cell death: lung tissue day 21, TUNEL
Description: The mice were sacrificed 24, 48 and 72 h later. Lungs were excised, inflated and fixed in formalin, and […] sections were analyzed by TUNEL staining. […]

[3] = system: bleo-induced collagen deposition in mouse lung; test: Mason's Trichrome stain for collagen of lung sections of bleo-treated mice; format: in vivo; conditions: for Collagen content in lung section: bleo-treated animals, peptide one day after bleo, day 21, trichrome stain
Description: FIG. 13 is a set of photomicrographs showing that PP-1 prevents bleo-induced collagen deposition in mouse lung. Mice were treated with bleo (50 μg/ml) by intranasal instillation followed by treatment with PP-1 (10 nM) or control peptide CP-1 on day 2. Lungs were excised on day 21, inflated and fixed in formalin, a sectioned into […] sections which were subjected to Mason's Trichrome stain (a three-color stain that stains cell nuclei red, collagen green or blue, and cytoplasm red). Blue staining indicates collagen deposition in bleo-treated lung sections.
(§3) FIGS. 14A & 14B is a series of photomicrographs of lung epithelial tissue stained with Mason's trichrome stain for collagen (FIG. 10A) and by TUNEL staining for apoptosis (FIG. 10B). Bleo-treated animals were instilled with either PP-1, PP-2 or control peptide CP-1 one day after bleo treatment, The lungs were removed on day 21, subjected to the staining procedures and examined for collagen accumulation or apoptosis.
Collagen deposition in mouse lung after bleo treatment was investigated. Mice were treated with bleo (50 μg/ml) by intranasal instillation followed by treatment with PP-1 (10 nM) (designated as PP in Figure) or control peptide CP-1 (designated CP in FIG. 13) on day 2. Lungs were excised on day 21, inflated and fixed in formalin, a sectioned into […] sections which were subjected to Mason's Trichrome stain (a three-color stain that stains cell nuclei red, collagen green or blue, and cytoplasm red).
(§4) A comparison was made of normal and bleo-treated lung, and the effect of PP-1 and PP-2 on the bleo-treated lungs were examined. Animals were treated with bleo and peptides as above. Lung tissue was removed at day 21 and stained with Mason's trichrome stain for collagen and subjected to TUNEL staining for apoptosis.

[4] = system: uPAR-dependent adhesion of cells to vitronectin; conditions: Wei Y et al., 1996, Science 273; cited from earlier work
[5] = target: integrin-caveolin-uPAR complexes (Homo sapiens, UniProt Q03405); conditions: at a concentration that blocked adhesion; Wei Y et al., 1996; cited from earlier work
bleo-treated lung = test: Histology of lung tissue of bleo-treated animals, pathological observations; format: in vivo, mouse; conditions: conclusion from Table 3, day 21
Excerpt: as §3, §4

PAI-1 = test: IHC of lung tissue of bleo-treated mice: PAI-1; format: in vivo, mouse; conditions: bleomycin-treated mice, 24-72 h
Description: (§5) For immunohistochemical (IHC) analysis, lungs were inflated at constant pressure of 20 cm H2O, removed and fixed overnight in 2% paraformaldehyde in PBS. Tissue was dehydrated by passage through a standard alcohol series and was embedded in paraffin. 5 μm sections were deparaffinized with xylene followed by incubation with 100% and 95% alcohol. After 10 min of antigen retrieval, the slides were incubated with H2O2 for 30 min to quench endogenous peroxidase. Slides were incubated overnight with the respective antibodies in PBS containing 0.1% Tween 20 and further processed using Lab vision kit (Freemont Calif.).
(§6) An IHC study was conducted to analyze lung tissue for expression p53, uPA, uPAR, PAI-1 and cleaved caspase 3 (Table 2). […] These IHC observations were confirmed by Western blotting (see Example II and FIG. 5).

p53 = test: IHC of lung tissue of bleo-treated mice: p53; format: in vivo, mouse; conditions: bleomycin-treated mice, 24-72 h
Description: as §5, §6

[6] = system: bleo-induced lung injury in the mouse; test: Lung desmosine (elastin) after bleo-induced lung injury; format: in vivo; conditions: 50 μg Bleo intranasally; 10 mM peptide in 0.1 ml osmotic pump i.p. one day later; lungs after 21 days
Description: as §1, §2

cleaved PARP = test: IHC of lung sections of bleo-treated mice: cleaved PARP; format: in vivo, mouse; conditions: peptide 4.5 μM i.p. days 1 and 2, bleomycin 40 μg/50 μl intranasal day 2; up to 72 h
Description: On day 2 mice were treated with bleomycin (40 μg/50μl) by intranasal instillation. Mice were sacrificed 24, 48 and 72 h after later, lungs were excised, inflated and fixed in formalin, and […] sections were analyzed by immunohistochemistry (IHC) using an antibody specific for cleaved PARP.
as §5

[7] = bleomycin 40 μg/50 μl intranasal, lungs after 21 days

Chain of integrin-caveolin-uPAR complexes (Q03405 23-305, one chain of several): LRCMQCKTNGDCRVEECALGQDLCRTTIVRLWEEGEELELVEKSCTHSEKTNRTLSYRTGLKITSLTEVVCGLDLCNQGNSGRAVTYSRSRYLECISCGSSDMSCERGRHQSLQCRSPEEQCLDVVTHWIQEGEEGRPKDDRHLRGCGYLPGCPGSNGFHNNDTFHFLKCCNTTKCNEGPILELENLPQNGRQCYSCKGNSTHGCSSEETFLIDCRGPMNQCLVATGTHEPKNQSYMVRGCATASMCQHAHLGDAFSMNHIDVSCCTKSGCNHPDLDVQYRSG

Row | Sequence | bleomycin-induced collagen deposition (hPro content, % of control) [1, 7] | Lung epithelial cell apoptosis: appearance of cells [2] | Lung epithelial cell apoptosis: cell death [2] [% cell] | Collagen content in lung section [3] | uPAR-dependent adhesion of cells to vitronectin [4] | disruption of integrin-caveolin-uPAR complexes [5] | effect on bleo-induced lung injury / Bleo-damaged lung tissue (bleo-treated lung) | development of bleo-induced lung fibrosis ([3]; conclusion from Table 3, day 21) | lung hydroxyproline levels ([1]; 50 μg Bleo intranasally, 10 mM peptide in 0.1 ml osmotic pump i.p. one day later, lungs after 21 days) | bleomycin-induced collagen deposition (hydroxyproline, % of control) ([1]; bleomycin 40 μg/50 μl intranasal, 10 mM peptide i.p. osmotic pump after 24 h, 7 days or 14 days, lungs 21 days) | PAI-1 expression in lung tissue (IHC) (PAI-1) | apoptosis (TUNEL positive cells) ([2]; peptide 4.5 μM i.p. on day 1 and 2, bleomycin 40 μg/50 μl intranasal on day 2, 24, 48 and 72 h) | p53 expression in lung tissue (IHC) (p53) | lung desmosine levels [6] | cleavage (degradation) of PARP in lung (cleaved PARP)
1 | AESTYHHLSLGYMYTLN [CP-2] | but not its control peptide CP-2 reversed bleomycin induced increases in collagen deposition | Fibrotic cells, | 90 | Increased | inhibited uPAR-dependent adhesion of cells to vitronectin | disrupted integrin-caveolin-uPAR complexes | did not have any discernible effect on Bleo-damaged lung tissue | – | – | – | – | – | – | – | –
2 | NYHYLESSMTALYTLGH [PP-2, initially disclosed as scrambled control for Peptide 25 of Wei Y et al] | significantly suppressed collagen deposition | No fibrosis, | 11 | Minimal | but not its control (which is PP-2 here) inhibited uPAR-dependent adhesion of cells to vitronectin | but not its control, disrupted integrin-caveolin-uPAR complexes | protected LECs from bleo-induced lung injury | prevented the development of bleo-induced lung fibrosis | – | – | – | – | – | – | –
3 | WGIDKAFFTTSTVTYKWFRY [CP-1, scrambled control peptide for PP-1 with the same amino acid composition] | – | Fibrotic cells, | 90 | Increased | – | – | did not have any discernible effect on Bleo-damaged lung tissue | – | did not have this effect | but not control peptide CP-1 reversed bleomycin-induced increases in collagen deposition | but not control peptide (CP-1) reduced this PAI-1 expression | but not with control peptide, reversed bleomycin-induced apoptosis | but not control peptide CP-1, blocked bleomycin induced p53 expression | did not have this effect | but not control peptide CP-1 reversed such PARP degradation
